Source: patent publication US8710064B2, “2-aryl-4-quinazolinones and their pharmaceutical compositions” (China Medical University, priority 2011, dated 2014)

System: C6 glioma cells
Assay: G1 synchronized by Ara-C, flow cytometry
Assay type: cell-based, rat
Conditions: 41.6 nM Ara-C for 12 hours
Procedure: At indicated time points (0, 6, 12 and 24 hr), >10^6 cells were collected and fixed in 70% ethanol over 1 hour at −20° C. After staining with PI as described, DNA content of ten thousand cells was analyzed by flow cytometry.
To investigate the influence of MJ-66 on normal glia such as human glia cell line SVGP12 and rat primary glia cells, cells were treated with different concentrations of MJ-66 in vitro (0.00625, 0.0125, 0.025, 0.05, 0.1 and 1 μM) for different time durations (0, 6, 12 and 24 hours) and the cell viability was assessed by MTS assay. Cells alone or treated with DMSO were used as control. […] However, most glia cells in animals are static and their proliferation rate is almost silent. Therefore, cytosine arabinoside (Ara-C), a DNA synthesis inhibitor, was further used to inhibit glioma cell proliferation and glioma cells were then treated with MJ-66 or DMSO as described in “General materials and methods”. Specifically, after C6 glioma cells were treated with 41.6 nM Ara-C for 12 hours, and then treated with solvent (DMSO) or 60 nM MJ-66 for 0, 6, 12 and 24 hours, the cell cycle distributions and DNA content of the cells were monitored by flow cytometry with propidium iodide staining C6 glioma cells treated with 41.6 nM Ara-C for 12 hours (12 hr) were detected by flow cytometry with propidium iodide staining as control.

## Nc1ccn([C@@H]2O[C@H](CO)[C@@H](O)[C@@H]2O)c(=O)n1 [Ara-C, cytosine arabinoside, reference compound]
  cell cycle state of C6 glioma cells: G1 arrest
